From article PMC5218480 (PLoS ONE, 2017)

Tested on: MV-4-11 cells
Assay: Gene expression microarray analysis (Affymetrix PrimeView) and GSEA
Type: cell-based, human
Conditions: ProbeSet 11717523_x_at; LIST B

## Nc1ccc(-c2cccs2)cc1NC(=O)c1ccc2c(c1)cc(C1CC1)n2CCN1CCOCC1 [ACY-1035]
  RFU, TMEM50B: 85.32 RFU
